Data from patent US20140243322A1, “BIVALENT BROMODOMAIN LIGANDS, AND METHODS OF USING SAME” (Coferon, Inc., priority 2011, published 2014).
pEC50: −log10 of the molar value.

Experiments:
MV4-11 cells = experiment: Inhibition of MV4-11 cell proliferation (Cell-Titer Glo); format: cell-based; settings: Homo sapiens, 72 hours of growth, read-out: GI50 range
Procedure: Inhibition of MV4-11 Cell Proliferation.
MV4-11 cells (5000 cells in 50 μl volumes) in growth medium containing 10% FBS and 1% Pen/Strep were plated and grown overnight in 96 well plates and treated the next day with 3-fold dilutions of test compounds or with DMSO vehicle. After 72 hours of growth, 30 ul of Cell-Titer Glo reagent (Promega) was added to the wells and the plates incubated for 30 minutes. Luminescence was measured on a Spectramax M5 plate reader and GI50 values were calculated for each test compound.

[1] = biological target: N-terminal His 6-tagged BRD2 tandem protein; experiment: Surface Plasmon Resonance (SPR) off-rate assay; format: binding; settings: immobilized BRD2 tandem protein; saturating concentrations injected 5 minutes, buffer 20 minutes
Procedure: Surface Plasmon Resonance (SPR) Assay.
Off rates were determined using surface plasmon resonance measurements on a Bio-Rad ProteOn XPR 36 instrument. N-terminal His 6-tagged BRD2 tandem protein was immobilized by capturing on a ProteOn HTG sensor chip and then cross coupled to the surface using standard amine reactive chemistry. Selected bivalent inhibitors were injected on to the chip surface at saturating concentrations for 5 minutes followed by buffer for 20 minutes. The resulting sensorgrams were analyzed using the ProteOn XPR software to determine off-rates. Off rates for selected bivalent inhibitors were >100× slower when binding to the BRD2 tandem protein compared to the monovalent pharmacophores or compared to the bivalents binding to monobromodomain containing protein constructs.

Myc mRNA = experiment: Inhibition of Myc expression (Myc mRNA) in MV4-11 cells; format: cell-based; settings: Homo sapiens, 4 hours of treatment, read-out: EC50 range, Myc mRNA normalized to GAPDH mRNA
From the text: Inhibition of Myc Expression.

| SMILES | GI50 (MV4-11 cells) [nM] | kd (off rate) [1] [s⁻¹] | pEC50 (Myc mRNA) |
| --- | --- | --- | --- |
| CCNC(=O)C[C@@H]1N=C(c2ccc(Cl)cc2)c2cc(OCCCNC(=O)C[C@@H]3N=C(c4ccc(Cl)cc4)c4cc(OC)ccc4-n4c(C)nnc43)ccc2-n2c(C)nnc21 [BRD-B-02, N-(3-(((4S)-6-(4-chlorophenyl)-4-(2-(ethylamino)-2-oxoethyl)-1-methyl-4H-benzo[f][1,2,4]triazolo[4,3-a][1,4]diazepin-8-yl)oxy)propyl)-2-((4S)-6-(4-chlorophenyl)-8-methoxy-1-methyl-4H-benzo[f][1,2,4]triazolo[4,3-a][1,4]diazepin-4-yl)acetamide] | 0.1 to 30 | 0.00011 | 4.52 to 7.00 |
| CCNC(=O)C[C@@H]1N=C(c2ccc(Cl)cc2)c2cc(OCCOCCNC(=O)C[C@@H]3N=C(c4ccc(Cl)cc4)c4cc(OC)ccc4-n4c(C)nnc43)ccc2-n2c(C)nnc21 [BRD-B-03, N-(2-(2-(((4S)-6-(4-chlorophenyl)-4-(2-(ethylamino)-2-oxoethyl)-1-methyl-4H-benzo[f][1,2,4]triazolo[4,3-a][1,4]diazepin-8-yl)oxy)ethoxy)ethyl)-2-((4S)-6-(4-chlorophenyl)-8-methoxy-1-methyl-4H-benzo[f][1,2,4]triazolo[4,3-a][1,4]diazepin-4-yl)acetamide] | 30 to 100 | 0.00011 | – |
| COc1ccc2c(c1)C(c1ccc(Cl)cc1)=N[C@@H](CC(=O)NCCNC(=O)CNC(=O)C[C@@H]1N=C(c3ccc(Cl)cc3)c3cc(OC)ccc3-n3c(C)nnc31)c1nnc(C)n1-2 [BRD-B-07, 2-((S)-6-(4-chlorophenyl)-8-methoxy-1-methyl-4H-benzo[f][1,2,4]triazolo[4,3-a][1,4]diazepin-4-yl)-N-(2-(2-(2-((S)-6-(4-chlorophenyl)-8-methoxy-1-methyl-4H-benzo[f][1,2,4]triazolo[4,3-a][1,4]diazepin-4-yl)acetamido)acetamido)ethyl)acetamide] | 100 to 30000 | – | 4.52 to 7.00 |
| COc1ccc2c(c1)C(c1ccc(Cl)cc1)=N[C@@H](CC(=O)NCCNC(=O)CNC(=O)CNC(=O)C[C@@H]1N=C(c3ccc(Cl)cc3)c3cc(OC)ccc3-n3c(C)nnc31)c1nnc(C)n1-2 [BRD-B-08, 2-((S)-6-(4-chlorophenyl)-8-methoxy-1-methyl-4H-benzo[f][1,2,4]triazolo[4,3-a][1,4]diazepin-4-yl)-N-(2-(2-(2-(2-((S)-6-(4-chlorophenyl)-8-methoxy-1-methyl-4H-benzo[f][1,2,4]triazolo[4,3-a][1,4]diazepin-4-yl)acetamido)acetamido)acetamido)ethyl)acetamide] | 100 to 30000 | – | 4.52 to 7.00 |
| COc1ccc2c(c1)C(c1ccc(Cl)cc1)=N[C@@H](CC(=O)NCCNC(=O)CNC(=O)NCCNC(=O)C[C@@H]1N=C(c3ccc(Cl)cc3)c3cc(OC)ccc3-n3c(C)nnc31)c1nnc(C)n1-2 [BRD-B-09] | 100 to 30000 | – | 4.52 to 7.00 |
| COc1ccc2c(c1)C(c1ccc(Cl)cc1)=N[C@@H](CC(=O)NCC(=O)NCCNC(=O)CNC(=O)C[C@@H]1N=C(c3ccc(Cl)cc3)c3cc(OC)ccc3-n3c(C)nnc31)c1nnc(C)n1-2 [BRD-B-11, (S)—N,N′-(ethane-1,2-diyl)bis(2-(2-((S)-6-(4-chlorophenyl)-8-methoxy-1-methyl-4H-benzo[f][1,2,4]triazolo[4,3-a][1,4]diazepin-4-yl)acetamido)acetamide)] | 100 to 30000 | – | 4.52 to 7.00 |
| CCNC(=O)C[C@@H]1N=C(c2ccc(Cl)cc2)c2cc(OCCOCCOCCOCCOCCNC(=O)C[C@@H]3N=C(c4ccc(Cl)cc4)c4cc(OC)ccc4-n4c(C)nnc43)ccc2-n2c(C)nnc21 [BRD-B-12, N-(14-(((4S)-6-(4-chlorophenyl)-4-(2-(ethylamino)-2-oxoethyl)-1-methyl-4H-benzo[f][1,2,4]triazolo[4,3-a][1,4]diazepin-8-yl)oxy)-3,6,9,12-tetraoxatetradecyl)-2-((4S)-6-(4-chlorophenyl)-8-methoxy-1-methyl-4H-benzo[f][1,2,4]triazolo[4,3-a][1,4]diazepin-4-yl)acetamide] | 0.1 to 30 | – | 7.00 to 7.52 |
| CCNC(=O)C[C@@H]1N=C(c2ccc(Cl)cc2)c2cc(OCCOCCOCCOCCOCCOCCNC(=O)C[C@@H]3N=C(c4ccc(Cl)cc4)c4cc(OC)ccc4-n4c(C)nnc43)ccc2-n2c(C)nnc21 [BRD-B-13, N-(17-(((4S)-6-(4-chlorophenyl)-4-(2-(ethylamino)-2-oxoethyl)-1-methyl-4H-benzo[f][1,2,4]triazolo[4,3-a][1,4]diazepin-8-yl)oxy)-3,6,9,12,15-pentaoxaheptadecyl)-2-((4S)-6-(4-chlorophenyl)-8-methoxy-1-methyl-4H-benzo[f][1,2,4]triazolo[4,3-a][1,4]diazepin-4-yl)acetamide] | 0.1 to 30 | – | 4.52 to 7.00 |
| CCNC(=O)C[C@@H]1N=C(c2ccc(Cl)cc2)c2cc(OCCOCCOCCOCCOCCOCCOCCNC(=O)C[C@@H]3N=C(c4ccc(Cl)cc4)c4cc(OC)ccc4-n4c(C)nnc43)ccc2-n2c(C)nnc21 [BRD-B-14, N-(20-(((4S)-6-(4-chlorophenyl)-4-(2-(ethylamino)-2-oxoethyl)-1-methyl-4H-benzo[f][1,2,4]triazolo[4,3-a][1,4]diazepin-8-yl)oxy)-3,6,9,12,15,18-hexaoxaicosyl)-2-((4S)-6-(4-chlorophenyl)-8-methoxy-1-methyl-4H-benzo[f][1,2,4]triazolo[4,3-a][1,4]diazepin-4-yl)acetamide] | 0.1 to 30 | 7.5e-05 | 7.52 to 10.00 |
| COc1ccc2c(c1)C(c1ccc(Cl)cc1)=N[C@@H](CC(=O)NCCOCCOCCOCCOCCNC(=O)C[C@@H]1N=C(c3ccc(Cl)cc3)c3cc(OC)ccc3-n3c(C)nnc31)c1nnc(C)n1-2 [BRD-B-16, (S)—N,N′-(3,6,9,12-tetraoxatetradecane-1,14-diyl)bis(2-((S)-6-(4-chlorophenyl)-8-methoxy-1-methyl-4H-benzo[f][1,2,4]triazolo[4,3-a][1,4]diazepin-4-yl)acetamide)] | 30 to 100 | – | 7.00 to 7.52 |
| COc1ccc2c(c1)C(c1ccc(Cl)cc1)=N[C@@H](CC(=O)NCCOCCOCCOCCOCCOCCNC(=O)C[C@@H]1N=C(c3ccc(Cl)cc3)c3cc(OC)ccc3-n3c(C)nnc31)c1nnc(C)n1-2 [BRD-B-17, (S)—N,N′-(3,6,9,12,15-pentaoxaheptadecane-1,17-diyl)bis(2-((S)-6-(4-chlorophenyl)-8-methoxy-1-methyl-4H-benzo[f][1,2,4]triazolo[4,3-a][1,4]diazepin-4-yl)acetamide)] | 30 to 100 | – | 4.52 to 7.00 |
| COc1ccc2c(c1)C(c1ccc(Cl)cc1)=N[C@@H](CC(=O)NCCOCCOCCOCCOCCOCCOCCNC(=O)C[C@@H]1N=C(c3ccc(Cl)cc3)c3cc(OC)ccc3-n3c(C)nnc31)c1nnc(C)n1-2 [BRD-B-18, (S)—N,N′-(3,6,9,12,15,18-hexaoxaicosane-1,20-diyl)bis(2-((S)-6-(4-chlorophenyl)-8-methoxy-1-methyl-4H-benzo[f][1,2,4]triazolo[4,3-a][1,4]diazepin-4-yl)acetamide)] | 0.1 to 30 | – | 7.00 to 7.52 |
| COc1ccc2c(c1)C(c1ccc(Cl)cc1)=N[C@@H](CC(=O)NCCOCCOCCOCCOCCOCCOCCOCCNC(=O)C[C@@H]1N=C(c3ccc(Cl)cc3)c3cc(OC)ccc3-n3c(C)nnc31)c1nnc(C)n1-2 [BRD-B-19, (S)—N,N′-(3,6,9,12,15,18,21-heptaoxatricosane-1,23-diyl)bis(2-((S)-6-(4-chlorophenyl)-8-methoxy-1-methyl-4H-benzo[f][1,2,4]triazolo[4,3-a][1,4]diazepin-4-yl)acetamide)] | 0.1 to 30 | – | 4.52 to 7.00 |
| CCNC(=O)C[C@@H]1N=C(c2ccc(Cl)cc2)c2cc(OCCOCCOCCOCCOCCOCCOCCOCCOCCNC(=O)C[C@@H]3N=C(c4ccc(Cl)cc4)c4cc(OC)ccc4-n4c(C)nnc43)ccc2-n2c(C)nnc21 [BRD-B-20, N-(26-(((4S)-6-(4-chlorophenyl)-4-(2-(ethylamino)-2-oxoethyl)-1-methyl-4H-benzo[f][1,2,4]triazolo[4,3-a][1,4]diazepin-8-yl)oxy)-3,6,9,12,15,18,21,24-octaoxahexacosyl)-2-((4S)-6-(4-chlorophenyl)-8-methoxy-1-methyl-4H-benzo[f][1,2,4]triazolo[4,3-a][1,4]diazepin-4-yl)acetamide] | 0.1 to 30 | – | 7.52 to 10.00 |
| COc1ccc2c(c1)C(c1ccc(Cl)cc1)=N[C@@H](CC(=O)NCCOCCOCCOCCOCCOCCOCCOCCOCCNC(=O)C[C@@H]1N=C(c3ccc(Cl)cc3)c3cc(OC)ccc3-n3c(C)nnc31)c1nnc(C)n1-2 [BRD-B-22, (S)—N,N′-(3,6,9,12,15,18,21,24-octaoxahexacosane-1,26-diyl)bis(2-((4S)-6-(4-chlorophenyl)-8-methoxy-1-methyl-4H-benzo[1,2,4]triazolo[4,3-a][1,4]diazepin-4-yl)acetamide)] | 0.1 to 30 | – | 7.00 to 7.52 |
| COc1ccc2c(c1)C(c1ccc(Cl)cc1)=N[C@@H](CC(=O)NCCOCCOCCOCCOCCOCCOCCOCCOCCOCCNC(=O)C[C@@H]1N=C(c3ccc(Cl)cc3)c3cc(OC)ccc3-n3c(C)nnc31)c1nnc(C)n1-2 [BRD-B-23, (S)—N,N′-(3,6,9,12,15,18,21,24,27-nonaoxanonacosane-1,29-diyl)bis(2-((4S)-6-(4-chlorophenyl)-8-methoxy-1-methyl-4H-benzo[f][1,2,4]triazolo[4,3-a][1,4]diazepin-4-yl)acetamide)] | 0.1 to 30 | – | 7.00 to 7.52 |
